Results from patent US8802675B2, “Neuroprotective multifunctional compounds and pharmaceutical compositions comprising them” (priority 2009, dated 2014).

Experiments:
Format in all cases: biochemical
[1] = target: T1, butyrylcholinesterase (BuChE) (Rattus norvegicus, UniProt Q9JKC1); assay: Butyrylcholinesterase inhibition in rat brain homogenates (Ellman); conditions: mean SEM, n=3 in triplicates
T1 construct: total cholinesterase (ChE) and butyrylcholinesterase (BuChE) activities in rat brain homogenates; from tissue; host or cells: brain homogenate (10% w/v) of adult Wistar rats
T1 sequence (Q9JKC1 24-597): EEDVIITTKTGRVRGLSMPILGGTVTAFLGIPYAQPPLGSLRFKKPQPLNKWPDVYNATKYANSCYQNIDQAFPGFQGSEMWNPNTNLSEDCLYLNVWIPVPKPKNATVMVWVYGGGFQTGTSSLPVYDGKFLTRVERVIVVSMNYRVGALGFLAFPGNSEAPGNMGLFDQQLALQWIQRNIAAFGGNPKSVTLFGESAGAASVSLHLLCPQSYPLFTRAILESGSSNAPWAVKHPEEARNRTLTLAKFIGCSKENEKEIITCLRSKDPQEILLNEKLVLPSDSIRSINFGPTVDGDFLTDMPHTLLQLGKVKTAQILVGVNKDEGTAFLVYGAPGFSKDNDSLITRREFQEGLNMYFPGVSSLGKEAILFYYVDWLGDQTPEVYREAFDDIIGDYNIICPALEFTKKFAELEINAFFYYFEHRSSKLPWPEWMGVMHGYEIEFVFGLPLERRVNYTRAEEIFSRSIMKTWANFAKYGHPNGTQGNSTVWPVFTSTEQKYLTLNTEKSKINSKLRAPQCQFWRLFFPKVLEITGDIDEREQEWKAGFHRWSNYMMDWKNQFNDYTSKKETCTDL
Description: Cholinesterase activity was determined in rat brain homogenate following incubation with varying concentrations of the multifunctional pro-chelators of the invention (also referred to herein as “carbamates”).
Ellman's colorimetric method was adapted for determination of total cholinesterase (ChE) and butyrylcholinesterase (BuChE) activities in rat brain homogenates. Brain tissue from adult Wistar rats was homogenized at 2% w/v (or 10% w/v, for BuChE) in 0.1 M sodium phosphate buffer, pH 7.4, with added NaCl 58.5 g/l and Triton X-100 0.05% v/v. Aliquots of homogenate (20 μl) were incubated with the test compounds for designed time intervals in phosphate buffer pH 7.4, before addition of 5,5′-dithiobis(2-nitrobenzoic) acid and either 1 mM acetylthiocholine iodide or 10 mM butyrylthiocholine iodide (Sigma, St. Louis, Mo.). The reaction was run at 37° C. in a final volume of […] in 96-well microplates and was followed at 412 nm for 5 min with a plate reader. In every experiment, cholinesterase-independent (nonspecific) substrate hydrolysis was determined by including one experimental group treated with tacrine 30 μM. Appropriate tissue and reagent blanks were also included. Reaction velocities were determined in three or four replicates per condition; these were averaged and expressed as percent activity relative to control (solvent), after subtracting the rate of nonspecific hydrolysis.
The results are the mean SEM, n=3 in triplicates. ND—not determined.

[2] = target: T2, rat brain cholinesterase (total ChE) (Rattus norvegicus, UniProt P37136); assay: Kinetics of irreversible cholinesterase inhibition (Kitz-Wilson); conditions: for kinact: pH 7.4, read-out: k+2 (carbamylation rate constant); for kinact/KI: pH 7.4, read-out: ki (second-order rate inhibition constant, approximated by k+2/Ki)
T2 construct: rows headed: Ki (dissociation constant for EI); other: rat brain total ChE; mean of 3-4 experiments; k+2 (carbamylation rate constant); other: from ki; rate of carba
T2 sequence (P37136 32-614): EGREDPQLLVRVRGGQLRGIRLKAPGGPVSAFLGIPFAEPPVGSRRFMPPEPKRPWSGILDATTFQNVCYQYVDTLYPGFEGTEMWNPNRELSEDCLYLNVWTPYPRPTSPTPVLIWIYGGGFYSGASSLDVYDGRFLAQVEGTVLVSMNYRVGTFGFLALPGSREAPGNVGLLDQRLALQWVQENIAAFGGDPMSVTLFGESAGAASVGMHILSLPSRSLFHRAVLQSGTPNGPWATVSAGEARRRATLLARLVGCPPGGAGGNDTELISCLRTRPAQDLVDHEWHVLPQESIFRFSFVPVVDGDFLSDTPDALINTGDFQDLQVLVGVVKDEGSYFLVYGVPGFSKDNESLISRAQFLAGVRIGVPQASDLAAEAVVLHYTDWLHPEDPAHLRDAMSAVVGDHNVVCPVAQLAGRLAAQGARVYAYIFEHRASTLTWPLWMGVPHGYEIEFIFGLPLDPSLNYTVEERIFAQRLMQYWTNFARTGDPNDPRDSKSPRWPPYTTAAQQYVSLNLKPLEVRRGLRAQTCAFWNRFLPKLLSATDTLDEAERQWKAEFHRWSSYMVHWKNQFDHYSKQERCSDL
Description: To determine kinetic constants of irreversible inhibition, cholinesterase from rat brain homogenates was incubated with the multifunctional compounds of the invention for designed time intervals in phosphate buffer pH 7.4.
The residual cholinesterase activity was immediately measured with the Ellman's colorimetric method after addition of 5,5′-dithiobis(2-nitrobenzoic) acid and 1 mM acetylthiocholine iodide. The inhibition kinetics were assessed according to Kitz-Wilson equation:
[formula] wherein: E represents the enzyme; I represents the intact carbamate (inhibitor); EI is the initial reversible enzyme complex; E* is the carbamylated enzyme; Ki represents the dissociation constant for EI; k+2 is the carbamylation rate constant and k+3 is the decarbamylation rate constant; kapp is the pseudo-first-order inhibition rate constant; ki, the second-order rate inhibition constant, is approximated by k+2/Ki. Under experimental condition [I]>>[E0].
According to equation (2), the logarithm of the ratio of the residual cholinesterase activity (E) and the initial cholinesterase activity (E0) is plotted against the time of incubation. The slopes of the lines representing kapp were determined by linear regression.
The slopes of the lines represent the pseudo-first-order inhibition rate constant (kapp) determined from linear regression analysis. […] The carbamylation rate constant (k+2) was obtained from the y-intercept, and the dissociation constant ([…] was obtained from the slope of the line multiplied by k+2 as described in Materials and Methods.
From these lines, the values of kapp were calculated based on Equation (2) of the Kitz-Wilson equations (see Material and Methods). […] The carbamylation rate constant k+2 is a measure of inactivation of ChE.

[3] = system: ChE from rat brain homogenates; assay: Time course of total ChE inhibition at 1 μM versus rivastigmine; conditions: for preincubation time to maximum (peak) inhibition on total ChE: 1 μM compound; for ChE inhibition compared with rivastigmine and other carbamates: 1 μM, time course
Description: The new carbamates of the present invention are expected to act as rivastigmine and inhibit ChE activity. […] Enzyme activity was determined with Ellman's colorimetric method after addition of substrate, and the results are shown in FIGS. 8A-8B.

SMILES	IC50 [1]	kinact [2]	kinact/KI [2]	preincubation time to maximum (peak) inhibition on total ChE [3]	ChE inhibition compared with rivastigmine and other carbamates [3]	potency in inhibiting ChE relative to rivastigmine ([2]; from ki)
C#CCN(C)Cc1ccc(OC(=O)N(C)CC)c2ncccc12 [Compound 3, 5-((methyl(propargyl)amino)methyl)quinolin-8-yl ethyl(methyl)carbamate]	60.7 ± 5.33 µM	0.0045 s⁻¹	39 M⁻¹ s⁻¹	≤ 1.5 h	far less potent than the other carbamates	
C#CCN(C)Cc1ccc(OC(=O)N2CCCC2)c2ncccc12 [Compound 5, 5-((methyl(propargyl)amino)methyl)quinolin-8-yl pyrrolidine-1-carboxylate]	31.2 ± 6.1 µM	0.00283 s⁻¹	41 M⁻¹ s⁻¹	≤ 3 h	far less potent than the other carbamates	half potent
C#CCN(C)Cc1ccc(OC(=O)N2CCN(Cc3ccccc3)CC2)c2ncccc12 [Compound 13, 5-((methyl(propargyl)amino)methyl)quinolin-8-yl 4-benzyl piperazine-1-carboxylate]	46 ± 3.5 µM	0.00167 s⁻¹	168 M⁻¹ s⁻¹		as potent as rivastigmine	
C#CCC1CCN(Cc2ccc(OC(=O)N(C)C)c3ncccc23)CC1 [Compound 23, 5-((4-(propargyl)piperidin-1-yl)methyl)quinolin-8-yl dimethylcarbamate]	42.6 ± 6.67 µM	0.00233 s⁻¹	242 M⁻¹ s⁻¹	2 h	increasingly greater inhibition	
